Assays:
EGFR^L858R+T790M+C797S = biological target: T1, EGFR^L858R+T790M+C797S (Homo sapiens, UniProt P00533, C797S/L858R/T790M); assay: EGFR protein degradation test (Western blot) in Ba/F3 cells expressing mutant EGFR L858R+T790M+C797S (LTC); assay type: cell-based; settings: compounds at 0.1 μM and 1 μM, 24 hours, Western blot with EGFR antibody
T1 construct: expressed in transfected cells; host or cells: Ba/F3
Method: (§1) The ability of the compounds of the present invention to degrade the mutant EGFR protein was confirmed in Ba/F3 cells expressing normal EGFR, mutant EGFR^del19+T790M+C797S or mutant EGFR^L858R+T790M+C797S. A Western blot test using the EGFR antibody was performed.
(§2) Specifically, Ba/F3 cells expressing EGFR were cultured in RPMI 1640 (Gibco, NY, USA) containing 10% fetal bovine serum (FBS, Gibco, NY, USA). Cells expressing normal EGFR, mutant EGFR^del19+T790M+C797S or mutant EGFR^L858R+T790M+C797S were treated with the compounds of the present invention at concentrations of 0.1 μM and 1 μM, respectively, for 24 hours. After that, it was washed twice with phosphate buffered saline (PBS) and SDS-PAGE was performed with 30 μg of cell lysate. After the protein separated on the gel was transferred to a nitrocellulose membrane, the expression level of the EGFR protein was confirmed using an EGFR antibody (Santa Cruz biotechnology, Santacruz, CA, USA). EGFR bands separated by Western blotting were quantitatively analyzed with Fluo-S MultiImager (Bio-Rad, Hercules, CA, USA).

EGFR^del19+T790M+C797S = assay: EGFR protein degradation test (Western blot) in Ba/F3 cells expressing mutant EGFR del19+T790M+C797S (DTC); assay type: cell-based; settings: compounds at 0.1 μM and 1 μM, 24 hours, Western blot with EGFR antibody
Method: as §1, §2

T1 sequence (P00533 25-1210 T790M/C797S/L858R): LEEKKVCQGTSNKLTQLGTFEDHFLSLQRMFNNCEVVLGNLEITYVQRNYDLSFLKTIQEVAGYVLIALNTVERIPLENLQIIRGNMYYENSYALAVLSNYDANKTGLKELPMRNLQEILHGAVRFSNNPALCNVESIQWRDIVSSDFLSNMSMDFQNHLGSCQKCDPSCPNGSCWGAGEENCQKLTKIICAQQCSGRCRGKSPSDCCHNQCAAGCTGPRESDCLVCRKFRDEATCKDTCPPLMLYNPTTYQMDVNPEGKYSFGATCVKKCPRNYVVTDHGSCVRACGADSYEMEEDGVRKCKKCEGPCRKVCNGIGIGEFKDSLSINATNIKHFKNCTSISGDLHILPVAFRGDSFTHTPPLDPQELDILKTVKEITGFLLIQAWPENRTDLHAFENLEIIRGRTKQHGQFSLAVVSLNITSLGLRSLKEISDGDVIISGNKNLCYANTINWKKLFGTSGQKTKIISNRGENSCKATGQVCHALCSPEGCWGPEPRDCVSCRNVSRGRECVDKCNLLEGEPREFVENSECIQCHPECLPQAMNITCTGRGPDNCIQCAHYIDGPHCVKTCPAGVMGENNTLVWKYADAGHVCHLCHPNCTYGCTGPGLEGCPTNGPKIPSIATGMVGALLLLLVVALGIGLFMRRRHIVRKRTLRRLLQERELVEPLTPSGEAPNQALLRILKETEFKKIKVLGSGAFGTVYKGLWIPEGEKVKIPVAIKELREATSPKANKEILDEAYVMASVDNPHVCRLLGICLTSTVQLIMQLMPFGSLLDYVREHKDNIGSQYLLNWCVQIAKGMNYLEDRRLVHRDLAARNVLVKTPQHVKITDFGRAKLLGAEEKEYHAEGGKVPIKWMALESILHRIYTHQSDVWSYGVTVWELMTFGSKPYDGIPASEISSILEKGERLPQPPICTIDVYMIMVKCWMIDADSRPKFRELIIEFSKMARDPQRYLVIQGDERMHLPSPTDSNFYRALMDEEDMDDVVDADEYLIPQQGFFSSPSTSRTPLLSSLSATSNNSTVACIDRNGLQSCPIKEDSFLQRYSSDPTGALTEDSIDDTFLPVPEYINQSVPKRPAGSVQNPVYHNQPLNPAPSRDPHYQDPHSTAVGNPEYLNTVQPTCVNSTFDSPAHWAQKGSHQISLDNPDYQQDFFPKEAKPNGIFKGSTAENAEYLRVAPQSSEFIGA

Row | Compound | LTC (EGFR^L858R+T790M+C797S) protein degradation (EGFR^L858R+T790M+C797S) | DTC (EGFR^del19+T790M+C797S) protein degradation (EGFR^del19+T790M+C797S)
1 | COc1cc(N2CCN(CCOC3CN(c4ccc5c(c4)C(=O)N(C4CCC(=O)NC4=O)C5=O)C3)CC2)ccc1Nc1ncc(Cl)c(Nc2ccccc2N(C)S(C)(=O)=O)n1 (stereo not shown) [Compound 33, N-(2-((5-chloro-2-((4-(4-(2-((1-(2-(2,6-dioxopiperidin-3-yl)-1,3-dioxoisoindolin-5-yl)azetidin-3-yl)oxy)ethyl)piperazin-1-yl)-2-methoxyphenyl)amino)pyrimidin-4-yl)amino)phenyl)-N-methylmethanesulfonamide] | − (Protein degradation < 20%) | + (Protein degradation 20~80%)
2 | COc1cc(N2CCN(CCOC3CCN(c4ccc5c(c4)C(=O)N(C4CCC(=O)NC4=O)C5=O)CC3)CC2)ccc1Nc1ncc(Cl)c(Nc2ccccc2N(C)S(C)(=O)=O)n1 (stereo not shown) [Compound 34, N-(2-((5-chloro-2-((4-(4-(2-((1-(2-(2,6-dioxopiperidin-3-yl)-1,3-dioxoisoindolin-5-yl)piperidin-4-yl)oxy)ethyl)piperazin-1-yl)-2-methoxyphenyl)amino)pyrimidin-4-yl)amino)phenyl)-N-methylmethanesulfonamide] | − (Protein degradation < 20%) | − (Protein degradation < 20%)
3 | COc1cc(N2CCC(CN3CC(C(=O)N[C@H](C(=O)N4C[C@H](O)C[C@H]4C(=O)NCc4ccc(-c5scnc5C)cc4)C(C)(C)C)C3)CC2)ccc1Nc1ncc(Cl)c(Nc2ccccc2N(C)S(C)(=O)=O)n1 [Compound 38, (2S,4R)-1-((S)-2-(1-((1-(4-((5-chloro-4-((2-(N-methylmethylsulfonamido)phenyl)amino)pyrimidin-2-yl)amino)-3-methoxyphenyl)piperidin-4-yl)methyl)azetidin-3-carboxamido)-3,3-dimethylbutanoyl)-4-hydroxy-N-(4-(4-methylthiazol-5-yl)benzyl)pyrrolidin-2-carboxamide] | − (Protein degradation < 20%) | − (Protein degradation < 20%)
4 | CN(c1ccccc1Nc1nc(Nc2ccc(N3CCN(CCN4CC(Oc5cccc6c5CN(C5CCC(=O)NC5=O)C6=O)C4)CC3)c(F)c2)ncc1Cl)S(C)(=O)=O (stereo not shown) [Compound 39, N-(2-((5-chloro-2-((4-(4-(2-(3-((2-(2,6-dioxopiperidin-3-yl)-1-oxoisoindolin-4-yl)oxy)azetidin-1-yl)ethyl)piperazin-1-yl)-3-fluorophenyl)amino)pyrimidin-4-yl)amino)phenyl)-N-methylmethanesulfonamide] | + (Protein degradation 20~80%) | + (Protein degradation 20~80%)
5 | CN(c1ccccc1Nc1nc(Nc2ccc(N3CCN(CCOC4CN(c5ccc6c(c5)C(=O)N(C5CCC(=O)NC5=O)C6=O)C4)CC3)c(F)c2)ncc1Cl)S(C)(=O)=O (stereo not shown) [Compound 40, N-(2-((5-chloro-2-((4-(4-(2-((1-(2-(2,6-dioxopiperidin-3-yl)-1,3-dioxoisoindolin-5-yl)azetidin-3-yl)oxy)ethyl)piperazin-1-yl)-3-fluorophenyl)amino)pyrimidin-4-yl)amino)phenyl)-N-methylmethanesulfonamide] | + (Protein degradation 20~80%) | + (Protein degradation 20~80%)
6 | COc1cc(N2CCN(CC3CCN(Cc4ccc5c(c4)C(=O)N(C4CCC(=O)NC4=O)C5=O)CC3)CC2)ccc1Nc1ncc(Cl)c(Nc2ccccc2N(C)S(C)(=O)=O)n1 (stereo not shown) [Compound 41, N-(2-((5-chloro-2-((4-(4-((1-((2-(2,6-dioxopiperidin-3-yl)-1,3-dioxoisoindolin-5-yl)methyl)piperidin-4-yl)methyl)piperazin-1-yl)-2-methoxyphenyl)amino)pyrimidin-4-yl)amino)phenyl)-N-methylmethanesulfonamide] | − (Protein degradation < 20%) | − (Protein degradation < 20%)
7 | CN(c1ccccc1Nc1nc(Nc2ccc(N3CCC(N4CCN(Cc5ccc6c(c5)C(=O)N(C5CCC(=O)NC5=O)C6=O)CC4)CC3)c(F)c2)ncc1Cl)S(C)(=O)=O (stereo not shown) [Compound 42, N-(2-((5-chloro-2-((4-(4-(4-((2-(2,6-dioxopiperidin-3-yl)-1,3-dioxoisoindolin-5-yl)methyl)piperazin-1-yl)piperidin-1-yl)-3-fluorophenyl)amino)pyrimidin-4-yl)amino)phenyl)-N-methylmethanesulfonamide] | − (Protein degradation < 20%) | + (Protein degradation 20~80%)
8 | COc1cc(N2CCC(N3CCN(C[C@@H]4CCCN4c4ccc5c(c4)C(=O)N(C4CCC(=O)NC4=O)C5=O)CC3)CC2)ccc1Nc1ncc(Cl)c(Nc2ccccc2N(C)S(C)(=O)=O)n1 (stereo partly drawn) [Compound 44, N-(2-((5-chloro-2-((4-(4-(4-(((2S)-1-(2-(2,6-dioxopiperidin-3-yl)-1,3-dioxoisoindolin-5-yl)pyrrolidin-2-yl)methyl)piperazin-1-yl)piperidin-1-yl)-2-methoxyphenyl)amino)pyrimidin-4-yl)amino)phenyl)-N-methylmethanesulfonamide] | + (Protein degradation 20~80%) | − (Protein degradation < 20%)
9 | CN(c1ccccc1Nc1nc(Nc2ccc(N3CCN(CC4CCN(CCOc5cccc6c5C(=O)N(C5CCC(=O)NC5=O)C6=O)CC4)CC3)c(F)c2)ncc1Cl)S(C)(=O)=O (stereo not shown) [Compound 46, N-(2-((5-chloro-2-((4-(4-((1-(2-((2-(2,6-dioxopiperidin-3-yl)-1,3-dioxoisoindolin-4-yl)oxy)ethyl)piperidin-4-yl)methyl)piperazin-1-yl)-3-fluorophenyl)amino)pyrimidin-4-yl)amino)phenyl)-N-methylmethanesulfonamide] | + (Protein degradation 20~80%) | + (Protein degradation 20~80%)
10 | COc1cc(N2CCC(CN3CCC(C(=O)Nc4cccc5c4CN(C4CCC(=O)NC4=O)C5=O)CC3)CC2)ccc1Nc1ncc(Cl)c(Nc2ccccc2N(C)S(C)(=O)=O)n1 (stereo not shown) [Compound 49, 1-((1-(4-((5-chloro-4-((2-(N-methylmethylsulfonamido)phenyl)amino)pyrimidin-2-yl)amino)-3-methoxyphenyl)piperidin-4-yl)methyl)-N-(2-(2,6-dioxopiperidin-3-yl)-1-oxoisoindolin-4-yl)piperidin-4-carboxamide] | − (Protein degradation < 20%) | − (Protein degradation < 20%)
11 | COc1cc(N2CCC3(CCN(CC(=O)Nc4cccc5c4CN(C4CCC(=O)NC4=O)C5=O)CC3)CC2)ccc1Nc1ncc(Cl)c(Nc2ccccc2N(C)S(C)(=O)=O)n1 (stereo not shown) [Compound 50, 2-(9-(4-((5-chloro-4-((2-(N-methylmethylsulfonamido)phenyl)amino)pyrimidin-2-yl)amino)-3-methoxyphenyl)-3,9-diazaspiro[5.5]undecan-3-yl)-N-(2-(2,6-dioxopiperidin-3-yl)-1-oxoisoindolin-4-yl)acetamide] | − (Protein degradation < 20%) | + (Protein degradation 20~80%)
12 | COc1cc(N2CCC(N3CCN(CCOc4cccc5c4C(=O)N(C4CCC(=O)NC4=O)C5=O)CC3)CC2)ccc1Nc1ncc(Cl)c(Nc2ccccc2N(C)S(C)(=O)=O)n1 (stereo not shown) [Compound 52, N-(2-((5-chloro-2-((4-(4-(4-(2-((2-(2,6-dioxopiperidin-3-yl)-1,3-dioxoisoindolin-4-yl)oxy)ethyl)piperazin-1-yl)piperidin-1-yl)-2-methoxyphenyl)amino)pyrimidin-4-yl)amino)phenyl)-N-methylmethanesulfonamide] | − (Protein degradation < 20%) | + (Protein degradation 20~80%)
13 | COc1cc(N2CCN(CC3CCN(CCOc4cccc5c4C(=O)N(C4CCC(=O)NC4=O)C5=O)CC3)CC2)ccc1Nc1ncc(Cl)c(Nc2ccccc2N(C)S(C)(=O)=O)n1 (stereo not shown) [Compound 57, N-(2-((5-chloro-2-((4-(4-((1-(2-((2-(2,6-dioxopiperidin-3-yl)-1,3-dioxoisoindolin-4-yl)oxy)ethyl)piperidin-4-yl)methyl)piperazin-1-yl)-2-methoxyphenyl)amino)pyrimidin-4-yl)amino)phenyl)-N-methylmethanesulfonamide] | − (Protein degradation < 20%) | − (Protein degradation < 20%)
14 | COc1cc(N2CCC(N3CCN(CCNc4ccc5c(c4)C(=O)N(C4CCC(=O)NC4=O)C5=O)CC3)CC2)ccc1Nc1ncc(Cl)c(Nc2ccccc2N(C)S(C)(=O)=O)n1 (stereo not shown) [Compound 58, N-(2-((5-chloro-2-((4-(4-(4-(2-((2-(2,6-dioxopiperidin-3-yl)-1,3-dioxoisoindolin-5-yl)amino)ethyl)piperazin-1-yl)piperidin-1-yl)-2-methoxyphenyl)amino)pyrimidin-4-yl)amino)phenyl)-N-methylmethanesulfonamide] | + (Protein degradation 20~80%) | − (Protein degradation < 20%)

— patent US20230322723A1, “COMPOUNDS FOR SUPPRESSING EGFR MUTANT CANCER AND PHARMACEUTICAL USE THEREOF” (J2H BIOTECH INC., priority 2020, published 2023)
